Data reported in patent publication US20230167068A1, “BENZOPYRAZOLE COMPOUND” (MEDSHINE DISCOVERY INC., priority 2019, published 2023).
Where two headings read alike, the source gives them in different places.

Tests used:
[1] = system: human peripheral blood mononuclear cells TNF-α; assay: Repression of TNF-α in human peripheral blood mononuclear cells (LPS, ELISA); format: cell-based; conditions: PBMC, 3-fold diluted; for IC50: read-out: hPBMC IC50; for Emax: maximum effect value
Protocol: Experimental purpose: To express the anti-inflammatory activity of the test compound at the cellular level according to the level of TNF-α in human peripheral blood mononuclear cells (hPBMC).
• [0488] 1) The frozen cells were quickly thawed by continuous stirring in a 37° C. water bath. • [0489] 2) 25 mL of fresh pre-heated thawed culture medium was added to a 50 mL centrifuge tube. Then the cells were added gently, drop by drop. • [0490] 3) Cells were centrifuged at 2000 rpm for 10 min (ascending speed: 9, descending speed: 1). • [0491] 4) The supernatant was discarded and the cell particles were resuspended in 25 mL of freshly pre-heated RPMI 1640 culture medium.
• [0493] 5) After thawing and resuscitating the suspended cells, the number of cells was counted and the total number of cells required for the experiment was calculated. • [0494] 6) The cell suspension was diluted with an appropriate volume of cell culture medium. • [0495] 7) The cell suspension was poured into a sterile disposable container. • [0496] 8) 100,000 cells/(100 µL) of cell suspension was transferred to each well of a 96-well plate. • [0497] 9) The cell plates were placed in humidified air, 5% CO2 incubator, 37° C. for 2 hours.
[…] In the second step, the serum-free culture medium was diluted 125 times, and the concentration of DMSO was 0.8%. Then 16.8 µL of the compound diluted in culture medium was transferred to a 100 µL cell plate, and the concentration of DMSO was 0.114%.
After adding the compound, the cell plates were incubated in a 37° C. 5% CO2 incubator for 1 hour.
In the first step, LPS was diluted with ultrapure water to a storage concentration of 1 mg/mL. In the second step, the storage concentration of LPS was diluted to 1 µg/mL in serum-free culture medium. In the third step, serum-free culture medium was 1666.666-fold diluted. Then 16.8 µL of LPS that has been diluted with culture medium was transferred to a 116.8 µL cell plate. At this time, the final concentration of DMSO was 0.1%. After adding LPS, the cell plate was put into a 37° C., 5% CO2 incubator and incubated for 18 hours.
• [0505] 1. The TNF-α antibody was diluted to 1× in the coating solution, and then 100 µL per well was added to a 96-well high-binding performance plate, and the plate was sealed with a membrane and placed at 4° C. for 18 hours. • [0506] 2. 2000 mL of wash buffer was prepared to 1x for later use.
• [0508] 3. After the plate was coated overnight, the coating solution was poured out and washed 3 times with 300 µL of washing buffer per well. • [0509] 4. After the plate was washed, 200 µL of sealing buffer was added to each well, and the plate was sealed with membrane. Incubated for one hour in a 25° C. incubator. • [0510] 5. The cell plates incubated for 18 hours were placed in a centrifuge for centrifugation, temperature: 25° C., speed: 2000 rpm, time: 10 min, ascending speed: 9, descending speed: 1. After centrifugation, 100 µL of cell supernatant from each well was transferred to a 3599 cell plate, and then placed in a 4° C. refrigerator for later use. • [0511] 6. The cell supernatant was diluted 40 times with sealing buffer and placed in a 4° C. refrigerator for later use, and the standard was also placed in a 4° C. refrigerator for later use. • [0512] 7. After the sealing was completed, the sealing solution was poured out and washed three times with 300 µL of washing buffer per well. • [0513] 8. The diluted cell supernatant samples and standards were added to the ELISA plate, and the plate was sealed with membrane. Then incubated for 2 hours in a 25° C. incubator. • [0514] 9. The liquid in the plate was poured out and washed 5 times with 300 µL of washing buffer per well. • [0515] 10. Antibodies were prepared and 100 µL was added to each well and the plate was sealed with sealing membrane. Then incubated for one hour in a 25° C. incubator. • [0516] 11. The liquid in the plate was poured out and washed 7 times with 300 µL of washing buffer per well. • [0517] 12. […]

[2] = system: hMMP-1 promoter reporter gene in Hela cells (GR transcription repression); assay: hMMP1 transcription repression activity, luciferase reporter gene screening system (hMMP1 GR transcription repression test); format: cell-based; conditions: Homo sapiens; for Emax: HeLa, maximum effect value, positive control 1000 nM dexamethasone, read-out: TR (hMMP1 transcription inhibition activity) Effect; for IC50: absolute IC50, HeLa hMMP-1/luciferase cells, 10 nM PMA, 18 h, max concentration 1000 nM, read-out: TR (hMMP1 transcription inhibition activity) IC50
From the text: Human MMP-1 promoter region (containing two AP-1 binding sites and two PEA3 sites, a total of 249bp, GenBank catalog #AF023338) was cloned into the upstream of luciferase reporter gene. The hMMP-1 promoter reporter gene was constructed and transfected into Hela cells so that luciferase production could be easily detected. A stable recombinant hMMP-⅟luciferase cell line was used for the development and validation of this experiment.
• [0377] 1) All the culture media were carefully aspirated, and the cell layer was rinsed gently with an appropriate amount of DPBS, and then aspirated. • [0378] 2) An appropriate amount of 0.05% Typsine EDTA was added and incubated in a CO2 incubator for 3-5 minutes to digest the cells. • [0379] 3) The cells were resuspended with an appropriate amount of cell culture medium. • [0380] 4) The required amount of cells were calculated. The cell concentration was 5x10^3 cells/well. • [0381] 5) The cell suspension was diluted with appropriate cell culture medium. • [0382] 6) The cell suspension was dispensed into a disposable sterile loading slot. • [0383] 7) Inoculated 30µL per well into a 384-well plate. • [0384] 8) The cell plate was placed in a 37° C. 5% CO2 incubator for 18-24 hours.
The final DMSO concentration was 0.1%. PMA needs to be protected from light during use.
hMMP1 GR transcription repression activity test • [0395] 1) Inoculated cells: Fresh cells were inoculated into 384 white experimental plates at 5x10^3 cells/30µL/well, and incubated in a 5% CO2 incubator at 37° C. for 24 hours. • [0396] 2) Compound preparation: The compound plate was prepared before the experiment, and the reference compound (dexamethasone) and the tested compound of 10x concentration were prepared. Finally, the experimental plate of 10× concentration compound was obtained. • [0397] 3) Added compound: 3.3 µL of 10x compound was transferred with Bravo and added to cell plate. Incubated for 18 hours in a 5% CO2 incubator at 37° C. • [0398] 4) 30 µL of Bright-Glo fluorescent detection reagent was transferred to the cell plate. • [0399] 5) Centrifugal incubation for 2 minutes. • [0400] 6) The fluorescence value was measured with the Envision plate reader.
Positive Control: 10 nM PMA + 1000 nM dexamethasone (0.1% DMSO)
Negative control: 10 nM PMA (0.1% DMSO)
Test compound: Maximum concentration of 1000 nM, 4-fold dilution, 10 wells in total, repeated.
Dexamethasone: Maximum concentration of 1000 nM, 4-fold dilution, 10 wells in total, repeated.
The graphing software GraphPad Prism5 was used to create the concentration curves of the test compounds and calculate the IC50 values.

[3] = absolute IC50, test Top concentration 1000 nM, 8 concentration (*)
[4] = test Top concentration 1000 nM, 8 concentration (*)
[5] = absolute IC50, test Top concentration 10000 nM, 8 concentration (unmarked)
[6] = test Top concentration 10000 nM, 8 concentration (unmarked)
[7] = absolute IC50, test Top concentration 100 nM, 8 concentration (***)
[8] = test Top concentration 100 nM, 8 concentration (***)

Structure (SMILES)	IC50 [1, 3]	Emax [1, 4]	Emax [2]	IC50 [2]	IC50 [1, 5]	Emax [1, 6]	IC50 [1, 7]	Emax [1, 8]	IC50 ([1]; absolute IC50, test Top concentration 500 nM, 8 concentration (**))	Emax ([1]; test Top concentration 500 nM, 8 concentration (**))
C[C@H](NC(=O)C(C)(F)F)[C@H](Oc1ccc2c(cnn2-c2ccc3nnnn3c2)c1)c1cc(F)cc(F)c1 [WX035]	11.6 nM	100%	94.6%	2.15 nM	–	–	–	–	–	–
CC(C)[C@H](NC(=O)C(C)(F)F)[C@H](Oc1ccc2c(cnn2-c2ccc3nccn3c2)c1)c1ccccc1 [WX004]	15.9 nM	78.5%	78.8%	3.58 nM	–	–	–	–	–	–
CC(C)[C@H](NC(=O)C(C)(F)F)[C@H](Oc1ccc2c(cnn2-c2ccc3nncn3c2)c1)c1cc(F)cc(F)c1 [WX017]	–	–	86%	0.9 nM	7.63 nM	83.1%	–	–	–	–
CC(C)[C@H](NC(=O)C(C)(F)F)[C@H](Oc1ccc2c(cnn2-c2ccc3nncn3c2)c1)c1ccccc1 [WX018]	18.6 nM	69.3%	83.7%	6.1 nM	–	–	–	–	–	–
C[C@H](NC(=O)C(C)(F)F)[C@H](Oc1ccc2c(cnn2-c2ccc3nccn3c2)c1)c1cc(F)cc(F)c1 [WX003]	–	–	95.1%	0.08 nM	–	–	0.97 nM	84.3%	–	–
C[C@H](NC(=O)C(C)(F)F)[C@H](Oc1ccc2c(cnn2-c2cn(C)nn2)c1)c1cc(F)cc(F)c1 [WX051]	–	–	95.4%	3.45 nM	–	–	–	–	10.4 nM	74.9%
C[C@H](NC(=O)C(C)(F)F)[C@H](Oc1ccc2c(cnn2-c2ccc3nncn3c2)c1)c1cc(F)cc(F)c1 [WX019]	–	–	94.8%	0.171 nM	–	–	0.98 nM	90%	–	–
C[C@H](NC(=O)C(C)(F)F)[C@H](Oc1ccc2c(cnn2-c2ccc3ncnn3c2)c1)c1cc(F)cc(F)c1 [WX034]	12.6 nM	79.3%	97.1%	3.22 nM	–	–	–	–	–	–
C[C@H](NC(=O)C(C)(F)F)[C@H](Oc1ccc2c(cnn2-c2cnn(C)c2)c1)c1ccccc1 [WX043]	4.9 nM	88.8%	93.3%	1.21 nM	–	–	–	–	–	–
C[C@H](NC(=O)C(C)(F)F)[C@H](Oc1ccc2c(cnn2-c2ccc3c(c2)CCCO3)c1)c1cc(F)cc(F)c1 [WX002]	–	–	100%	0.318 nM	15.1 nM	84.6%	–	–	–	–
